The Ki is a dissociation constant, usually derived from enzyme kinetics or from competition with a known ligand.

Structures are written as SMILES. Where a name gives a salt, the structure may show the parent alone. Read-outs that look alike come from different tables or passages of the source.

What all share (format): biochemical
The target of one assay is MASP-2 (CCP1-CCP2-SP) (Homo sapiens (Human), UniProt O00187). Put plainly: biochemical. The settings on record: for MASP-2 vs. thrombin selectivity: selectivity for MASP-2 inhibition versus thrombin.
Sequence of MASP-2 (CCP1-CCP2-SP) (O00187 445-686): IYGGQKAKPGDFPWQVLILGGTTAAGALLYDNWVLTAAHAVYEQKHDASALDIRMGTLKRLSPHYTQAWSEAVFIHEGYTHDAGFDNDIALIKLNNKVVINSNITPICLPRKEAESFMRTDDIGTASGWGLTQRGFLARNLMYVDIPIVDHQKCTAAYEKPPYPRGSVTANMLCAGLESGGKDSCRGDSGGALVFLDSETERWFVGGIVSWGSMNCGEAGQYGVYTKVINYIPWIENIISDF
The next assay has as its target human α-thrombin (Homo sapiens (Human), UniProt P00734). Put plainly: Enzymatic assay for thrombin (Boc-VPR-AMC substrate).
A further assay has as its target mMASP-2 (Mus musculus (Mouse), UniProt Q91WP0). Put plainly: Enzymatic inhibition of mMASP-2. Conditions: read-out: mMASP-2 Ki.

Sequence of mMASP-2 (Q91WP0 20-685): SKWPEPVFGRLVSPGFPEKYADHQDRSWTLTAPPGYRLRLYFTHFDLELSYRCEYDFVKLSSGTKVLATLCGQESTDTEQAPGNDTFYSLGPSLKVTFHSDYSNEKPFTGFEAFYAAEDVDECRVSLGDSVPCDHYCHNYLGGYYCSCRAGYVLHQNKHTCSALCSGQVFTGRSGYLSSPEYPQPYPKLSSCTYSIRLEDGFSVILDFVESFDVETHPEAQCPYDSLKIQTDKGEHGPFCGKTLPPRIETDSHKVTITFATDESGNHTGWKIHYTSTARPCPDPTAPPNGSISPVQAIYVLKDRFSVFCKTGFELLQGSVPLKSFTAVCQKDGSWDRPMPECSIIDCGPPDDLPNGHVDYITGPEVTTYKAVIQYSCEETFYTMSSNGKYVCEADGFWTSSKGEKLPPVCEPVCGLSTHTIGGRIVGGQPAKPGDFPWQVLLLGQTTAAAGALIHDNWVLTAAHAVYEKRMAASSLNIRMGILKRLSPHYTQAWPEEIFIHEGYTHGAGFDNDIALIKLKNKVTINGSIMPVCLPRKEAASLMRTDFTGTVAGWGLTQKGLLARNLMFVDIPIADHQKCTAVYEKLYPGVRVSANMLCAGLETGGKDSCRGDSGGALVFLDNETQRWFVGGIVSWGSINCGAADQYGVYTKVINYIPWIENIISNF

For the molecule `Cc1nc(N)ccc1CNC(=O)[C@H](C)NC(=O)[C@H]1C[C@@H](CCc2ccccc2)CN1` [compound 1322, (2R,4R)—N—((S)-1-(((6-Amino-2-methylpyridin-3-yl)methyl)amino)-1-oxopropan-2-yl)-4-phenethylpyrrolidine-2-carboxamide Dihydrochloride], the Ki is less than 500 nM at MASP-2 (CCP1-CCP2-SP) (read-out: MASP-2 Ki), 10 to 25 µM at human α-thrombin (Thrombin Ki (μM)) and 500 to 2500 nM on mMASP-2. Moreover, the “MASP-2 vs. thrombin selectivity” value on MASP-2 (CCP1-CCP2-SP) is “*** (≥25 to <100-fold)”.
With `CCc1nc(N)ccc1CNC(=O)[C@H](C)NC(=O)[C@H]1C[C@H](c2ccccc2)CN1` [compound 1323, (2R,4R)—N—((S)-1-(((6-Amino-2-ethylpyridin-3-yl)methyl)amino)-1-oxopropan-2-yl)-4-phenylpyrrolidine-2-carboxamide Dihydrochloride], the Ki was greater than 25000 nM at MASP-2 (CCP1-CCP2-SP) (read-out: MASP-2 Ki), greater than 25 µM on human α-thrombin (read-out: Thrombin Ki) and 10000 to 25000 nM on mMASP-2.
As for `N=C(N)c1ccc(CNC(=O)[C@H](Cc2ccc(O)cc2)NC(=O)[C@H](N)CCc2ccccc2)cc1` [compound 1326, (R)-2-Amino-N—((S)-1-((4-carbamimidoylbenzyl)amino)-3-(4-hydroxyphenyl)-1-oxopropan-2-yl)-4-phenylbutanamide Di-trifluoroacetate salt], the Ki was less than 500 nM on MASP-2 (CCP1-CCP2-SP) (read-out: MASP-2 Ki), 10 to 25 µM at human α-thrombin (Thrombin Ki (μM)) and less than 500 nM at mMASP-2. Besides, at MASP-2 (CCP1-CCP2-SP), the “MASP-2 vs. thrombin selectivity” value is listed as “*** (≥25 to <100-fold)”.
For the molecule `C[C@H](NC(=O)[C@@H](CCc1ccccc1)NCCc1ccc(O)cc1)C(=O)NCc1ccc(C(=N)N)cc1` [compound 1327, (R)—N—((S)-1-((4-Carbamimidoylbenzyl)amino)-1-oxopropan-2-yl)-2-((4-hydroxyphenethyl)amino)-4-phenylbutanamide dihydrochloride], the Ki on MASP-2 (CCP1-CCP2-SP) (read-out: MASP-2 Ki) was less than 500 nM; at human α-thrombin (read-out: Thrombin Ki), less than 0.5 µM; at mMASP-2 it was less than 500 nM. In addition, the “MASP-2 vs. thrombin selectivity” value at MASP-2 (CCP1-CCP2-SP) is listed as “*** (≥25 to <100-fold)”.
As to `C[C@H](NC(=O)[C@H]1C[C@H](c2ccccc2)CN1)C(=O)NCc1cnc2[nH]cc(Cl)c2c1` [compound 1329, (2R,4R)—N—((S)-1-(((3-chloro-1H-pyrrolo[2,3-b]pyridin-5-yl)methyl)amino)-1-oxopropan-2-yl)-4-phenylpyrrolidine-2-carboxamide Dihydrochloride], the Ki is less than 500 nM on MASP-2 (CCP1-CCP2-SP) (read-out: MASP-2 Ki), 0.5 to 2.5 µM at human α-thrombin (Thrombin Ki (μM)) and less than 500 nM on mMASP-2. Moreover, the “MASP-2 vs. thrombin selectivity” value on MASP-2 (CCP1-CCP2-SP) is recorded as “* (≥1.0 to <5.0-fold)”.
As to `C[C@H](NC(=O)[C@@H](CCc1ccccc1)NCCc1cccc(O)c1)C(=O)NCc1ccc(C(=N)N)cc1` [compound 1330, (R)—N—((S)-1-((4-Carbamimidoylbenzyl)amino)-1-oxopropan-2-yl)-2-((3-hydroxyphenethyl)amino)-4-phenylbutanamide Di-trifluoroacetate salt], the Ki on MASP-2 (CCP1-CCP2-SP) (read-out: MASP-2 Ki) was less than 500 nM; at human α-thrombin (read-out: Thrombin Ki), less than 0.5 µM; at mMASP-2 it was less than 500 nM. Moreover, the “MASP-2 vs. thrombin selectivity” value at MASP-2 (CCP1-CCP2-SP) is “*** (≥25 to <100-fold)”.
Regarding `N=C(N)c1ccc(CNC(=O)[C@H](Cc2cnc[nH]2)NC(=O)[C@H](N)CCc2ccccc2)cc1` [compound 1332, (R)-2-Amino-N—((S)-1-((4-carbamimidoylbenzyl)amino)-3-(1H-imidazol-5-yl)-1-oxopropan-2-yl)-4-phenylbutanamide Di-trifluoroacetate], the Ki on MASP-2 (CCP1-CCP2-SP) is 10000 to 25000 nM; at human α-thrombin (read-out: Thrombin Ki), greater than 25 µM; on mMASP-2 it was 2500 to 10000 nM.
On the same counts, the results for `Cc1cc(Cl)cc(CNC(=O)[C@H](C)NC(=O)[C@H]2C[C@H](c3ccccc3)CN2)c1` [compound 1333, (2R,4R)—N—((S)-1-((3-Chloro-5-methylbenzyl)amino)-1-oxopropan-2-yl)-4-phenylpyrrolidine-2-carboxamide Hydrochloride] are 2500 to 10000 nM, greater than 25 µM and 10000 to 25000 nM.
As to `N=C(N)c1ccc(CNC(=O)[C@H](CCC(N)=O)NC(=O)[C@H](N)CCc2ccccc2)cc1` [compound 1335, (S)-2-((R)-2-Amino-4-phenylbutanamido)-N-(4-carbamimidoylbenzyl)pentanediamide Di-trifluoroacetate], the inhibition constant (Ki) at MASP-2 (CCP1-CCP2-SP) (read-out: MASP-2 Ki) was less than 500 nM; on human α-thrombin (Thrombin Ki (μM)) it was 2.5 to 10 µM; on mMASP-2 it was less than 500 nM. On MASP-2 (CCP1-CCP2-SP), the “MASP-2 vs. thrombin selectivity” value was “*** (≥25 to <100-fold)”.
As for `C[C@H](NC(=O)[C@H]1C[C@H](c2ccccc2)CN1)C(=O)NCc1cc(N)n[nH]1` [compound 1336, (2R,4R)—N—((S)-1-(((3-Amino-1H-pyrazol-5-yl)methyl)amino)-1-oxopropan-2-yl)-4-phenylpyrrolidine-2-carboxamide Dihydrochloride], the Ki is 10000 to 25000 nM on MASP-2 (CCP1-CCP2-SP), greater than 25 µM at human α-thrombin (read-out: Thrombin Ki) and greater than 25000 nM at mMASP-2.
On to `Cc1nc(N)ccc1CNC(=O)[C@H](C)NC(=O)[C@H]1C[C@H](Cc2ccc3ccccc3c2)CN1` [compound 1338, (2R,4S)—N—((S)-1-(((6-Amino-2-methylpyridin-3-yl)methyl)amino)-1-oxopropan-2-yl)-4-(naphthalen-2-ylmethyl)pyrrolidine-2-carboxamide Dihydrochloride], for which the Ki at MASP-2 (CCP1-CCP2-SP) (read-out: MASP-2 Ki) is less than 500 nM; at human α-thrombin (read-out: Thrombin Ki) it was greater than 25 µM; on mMASP-2, less than 500 nM. Further, the “MASP-2 vs. thrombin selectivity” value on MASP-2 (CCP1-CCP2-SP) is “**** (≥100-fold)”.
Turning to `C[C@H](NC(=O)[C@@H](CCc1ccccc1)NCCc1ccccc1)C(=O)NCc1ccc(C(=N)N)cc1` [compound 1340, (R)—N—((S)-1-((4-Carbamimidoylbenzyl)amino)-1-oxopropan-2-yl)-2-(phenethylamino)-4-phenylbutanamide Dihydrochloride], the values for the inhibition constant (Ki) at MASP-2 (CCP1-CCP2-SP) (read-out: MASP-2 Ki), at human α-thrombin (read-out: Thrombin Ki) and at mMASP-2 were less than 500 nM, less than 0.5 µM and less than 500 nM, respectively. The “MASP-2 vs. thrombin selectivity” value on MASP-2 (CCP1-CCP2-SP) is reported as “** (≥5.0 to <25-fold)”.
`C[C@H](NC(=O)[C@H](N)CCc1ccccc1)C(=O)NCc1cc(Cl)ccc1-n1cncn1` [compound 1341, (R)-2-amino-N—((S)-1-((5-chloro-2-(1H-1,2,4-triazol-1-yl)benzyl)amino)-1-oxopropan-2-yl)-4-phenylbutanamide]: the results for the Ki at MASP-2 (CCP1-CCP2-SP), on human α-thrombin (Thrombin Ki (μM)) and on mMASP-2 were 10000 to 25000 nM, 0.5 to 2.5 µM and greater than 25000 nM, respectively. In addition, the “MASP-2 vs. thrombin selectivity” value at MASP-2 (CCP1-CCP2-SP) is “−− (<1.0-fold)”.
As for `C[C@H](NC(=O)[C@H](N)CCc1ccccc1)C(=O)NCc1cccnc1N` [compound 1346, (R)-2-Amino-N—((S)-1-(((2-aminopyridin-3-yl)methyl)amino)-1-oxopropan-2-yl)-4-phenylbutanamide Dihydrochloride], the Ki at MASP-2 (CCP1-CCP2-SP) was 10000 to 25000 nM; on human α-thrombin (read-out: Thrombin Ki), greater than 25 µM; on mMASP-2, greater than 25000 nM.
As to `Cc1nc(N)ccc1CNC(=O)[C@H](C)NC(=O)[C@@H](CCc1ccccc1)NCCc1cccc(O)c1` [compound 1349, (R)—N—((S)-1-(((6-Amino-2-methylpyridin-3-yl)methyl)amino)-1-oxopropan-2-yl)-2-((3-hydroxyphenethyl)amino)-4-phenylbutanamide Dihydrochloride], the results for the Ki on MASP-2 (CCP1-CCP2-SP), at human α-thrombin (read-out: Thrombin Ki) and on mMASP-2 were 500 to 2500 nM, greater than 25 µM and 2500 to 10000 nM, respectively. On MASP-2 (CCP1-CCP2-SP), the “MASP-2 vs. thrombin selectivity” value is recorded as “** (≥5.0 to <25-fold)”.

For the origin of these results see patent publication US11584714B2 (priority 2018, dated 2023).
